# According to patent US11375929B2, “Method and device for detection of bioavailable drug concentration in a fluid sample” (THE UNIVERSITY OF TENNESSEE RESEARCH FOUNDATION, priority 2008, dated 2022):
# Test: membrane/water partition coefficient calculated from CV peak current ratio of uncoated and PVC membrane-coated GC electrode (Equation 1)
# Format: physicochemical
structure (smiles),measurement,setting,value
"CC(=O)Nc1ccc(O)cc1 [APAP, 4-acetamidophenol]",Pmw (membrane/water partition coefficient),"PVC membrane I (o-NPOE), Cw=1 mM, iw/im ~140, Dm=4×10^−8 cm^2/s, Dw=8×10^−6 cm^2/s",0.1
same,Pmw (membrane/water partition coefficient),"membrane III (DOS), same protocol",0.5
same,Pmw (membrane/water partition coefficient),"membrane V (1-octanol), same protocol",1.6
